Source: patent publication US12534474B2, “Dihydrofuropyridine derivatives as rho-kinase inhibitors” (CHIESI FARMACEUTICI S.P.A., priority 2020, dated 2026)

Experiments:
Assay type in all cases: biochemical
ROCK1 [1] = target: T1, ROCK1 (Homo sapiens, UniProt Q13464); experiment: In vitro Rho kinase inhibitory activity assay, ADP-Glo, Method A (ATP 10 μM); details: read-out: Method A ROCK 1 (Ki)
Experimental: (§1) In Vitro Inhibitory Activity Assay Description (Method A)
(§2) The effectiveness of compounds of the present invention to inhibit Rho kinase activity can be determined in a 10 μL assay containing 40 mM Tris pH7.5, 20 mM MgCl2 0.1 mg/mL BSA, 50 μM DTT and 2.5 μM peptide substrate (Myelin Basic Protein) using an ADP-Glo kit (Promega). Compounds were dissolved in DMSO such that the final concentration of DMSO was 1% in the assay. All reactions/incubations are performed at 25° C. Compound (2 μL) and either Rho kinase 1 or 2 (4 μL) were mixed and incubated for 30 min. Reactions were initiated by addition of ATP (4 μL) such that the final concentration of ATP in the assay was 10 μM. After a 1 hour incubation 10 μL of ADP-Glo Reagent was added and after a further 45 minute incubation 20 μL of Kinase Detection Buffer was added and the mixture incubated for a further 30 minutes. The luminescent signal was measured on a luminometer. […] Compounds were tested in dose-response format and the inhibition of kinase activity was calculated at each concentration of compound. To determine the IC50 (concentration of compound required to inhibit 50% of the enzyme activity) data were fit to a plot of % inhibition vs Log10 compound concentration using a sigmoidal fit with a variable slope and fixing the maximum to 100% and the minimum to 0%. To determine the Ki values the Cheng-Prusoff equation was utilized (Ki=IC50/(1+[S]/Km).

ROCK2 [2] = target: T2, ROCK2 (Homo sapiens, UniProt O75116); experiment: as above; details: read-out: Method A ROCK 2 (Ki)
Experimental: as §1, §2

ROCK1 [3] = target: T1, ROCK1; experiment: In vitro Rho kinase inhibitory activity assay, ADP-Glo, Method B (ATP 200 μM); details: read-out: Method B ROCK 1 (Ki)
Experimental: (§3) In Vitro Inhibitory Activity Assay Description (Method B)
as §2, with “(2 ul)” for “(2 μL)”, “was 200” for “was 10”, “20 ul” for “20 μL”, “vs Log 10” for “vs Log10”

ROCK2 [4] = target: T2, ROCK2; experiment: as above; details: read-out: Method B ROCK 2 (Ki)
Experimental: as §3
as §2, with “(2 ul)” for “(2 μL)”, “was 200” for “was 10”, “20 ul” for “20 μL”, “vs Log 10” for “vs Log10”

PKA = PKA (Homo sapiens, UniProt P17612); experiment: In vitro inhibitory activity assay for PKA, ADP-Glo, reported as selectivity ratio vs ROCK2; details: Ki for PKA divided by Ki of ROCK2 (Method B)
Experimental: In Vitro Inhibitory Activity Assay Description for PKA
The effectiveness of compounds of the present invention to inhibit PKA activity can be determined in a 10 μL assay containing 40 mM Tris pH7.5, 20 mM MgCl2 0.1 mg/mL BSA, 50 μM DTT and 260 μM peptide substrate (kemptide) using an ADP-Glo kit (Promega). Compounds were dissolved in DMSO such that the final concentration of DMSO was 1% in the assay. All reactions/incubations are performed at 25° C. Compound and PKA enzyme (6 μL) were mixed and incubated for 30 min. Reactions were initiated by addition of ATP (4 μL) such that the final concentration of ATP in the assay was 10 μM. After a 30 minute incubation 10 μL of ADP-Glo Reagent was added and after a further 1 hour incubation 20 μL of Kinase Detection Buffer was added and the mixture incubated for a further 45 minutes. The luminescent signal was measured on a luminometer. […] Compounds were tested in dose-response format and the inhibition of kinase activity was calculated at each concentration of compound. To determine the IC50 (concentration of compound required to inhibit 50% of the enzyme activity) data were fit to a plot of % inhibition vs Log10 compound concentration using a sigmoidal fit with a variable slope and fixing the maximum to 100% and the minimum to 0%. To determine the Ki values the Cheng-Prusoff equation was utilized (Ki=IC50/(1+[S]/Km).
In vitro inhibitory activities for PKA were reported as selectivity ratio vs. ROCK2. Selectivity ratio PKA/ROCK2 was calculated by dividing the Ki value for PKA by Ki value of ROCK2 (Method B) and reported into table 1.

T1 sequence (Q13464 whole entry): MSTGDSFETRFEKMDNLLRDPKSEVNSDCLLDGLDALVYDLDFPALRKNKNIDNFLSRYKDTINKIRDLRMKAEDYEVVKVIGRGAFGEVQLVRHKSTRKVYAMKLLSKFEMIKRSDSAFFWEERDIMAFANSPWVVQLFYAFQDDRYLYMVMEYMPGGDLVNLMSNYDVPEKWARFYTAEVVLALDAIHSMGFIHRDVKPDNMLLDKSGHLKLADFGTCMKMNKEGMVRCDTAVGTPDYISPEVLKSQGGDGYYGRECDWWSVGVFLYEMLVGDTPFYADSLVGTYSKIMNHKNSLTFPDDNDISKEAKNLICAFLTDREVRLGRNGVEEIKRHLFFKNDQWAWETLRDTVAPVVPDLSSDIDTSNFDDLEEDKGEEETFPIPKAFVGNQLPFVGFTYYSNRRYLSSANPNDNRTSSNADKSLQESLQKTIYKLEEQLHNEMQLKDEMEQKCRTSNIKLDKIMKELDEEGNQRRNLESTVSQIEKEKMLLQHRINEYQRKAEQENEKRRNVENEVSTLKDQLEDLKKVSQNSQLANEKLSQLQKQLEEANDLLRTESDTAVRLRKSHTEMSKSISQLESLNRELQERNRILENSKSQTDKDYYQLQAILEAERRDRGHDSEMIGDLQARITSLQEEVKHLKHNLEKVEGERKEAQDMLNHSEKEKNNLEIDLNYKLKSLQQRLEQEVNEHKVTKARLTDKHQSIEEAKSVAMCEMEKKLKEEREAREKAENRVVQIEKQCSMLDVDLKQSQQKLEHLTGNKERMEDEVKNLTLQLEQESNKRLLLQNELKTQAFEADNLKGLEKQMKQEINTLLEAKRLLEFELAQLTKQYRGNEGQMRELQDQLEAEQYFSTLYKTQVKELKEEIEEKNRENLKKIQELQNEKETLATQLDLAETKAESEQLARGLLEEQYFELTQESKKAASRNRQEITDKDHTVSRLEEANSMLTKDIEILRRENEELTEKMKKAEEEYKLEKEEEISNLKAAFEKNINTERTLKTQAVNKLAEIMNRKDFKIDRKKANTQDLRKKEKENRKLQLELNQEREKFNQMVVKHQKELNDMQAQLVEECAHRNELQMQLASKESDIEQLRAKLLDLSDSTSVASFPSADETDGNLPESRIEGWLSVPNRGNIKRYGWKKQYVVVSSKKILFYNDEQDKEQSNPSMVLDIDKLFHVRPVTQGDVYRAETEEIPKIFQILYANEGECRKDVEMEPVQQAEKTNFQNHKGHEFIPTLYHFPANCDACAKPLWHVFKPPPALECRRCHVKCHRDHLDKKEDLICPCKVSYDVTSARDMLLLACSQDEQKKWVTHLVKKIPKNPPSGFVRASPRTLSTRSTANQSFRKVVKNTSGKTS
T2 sequence (O75116 whole entry): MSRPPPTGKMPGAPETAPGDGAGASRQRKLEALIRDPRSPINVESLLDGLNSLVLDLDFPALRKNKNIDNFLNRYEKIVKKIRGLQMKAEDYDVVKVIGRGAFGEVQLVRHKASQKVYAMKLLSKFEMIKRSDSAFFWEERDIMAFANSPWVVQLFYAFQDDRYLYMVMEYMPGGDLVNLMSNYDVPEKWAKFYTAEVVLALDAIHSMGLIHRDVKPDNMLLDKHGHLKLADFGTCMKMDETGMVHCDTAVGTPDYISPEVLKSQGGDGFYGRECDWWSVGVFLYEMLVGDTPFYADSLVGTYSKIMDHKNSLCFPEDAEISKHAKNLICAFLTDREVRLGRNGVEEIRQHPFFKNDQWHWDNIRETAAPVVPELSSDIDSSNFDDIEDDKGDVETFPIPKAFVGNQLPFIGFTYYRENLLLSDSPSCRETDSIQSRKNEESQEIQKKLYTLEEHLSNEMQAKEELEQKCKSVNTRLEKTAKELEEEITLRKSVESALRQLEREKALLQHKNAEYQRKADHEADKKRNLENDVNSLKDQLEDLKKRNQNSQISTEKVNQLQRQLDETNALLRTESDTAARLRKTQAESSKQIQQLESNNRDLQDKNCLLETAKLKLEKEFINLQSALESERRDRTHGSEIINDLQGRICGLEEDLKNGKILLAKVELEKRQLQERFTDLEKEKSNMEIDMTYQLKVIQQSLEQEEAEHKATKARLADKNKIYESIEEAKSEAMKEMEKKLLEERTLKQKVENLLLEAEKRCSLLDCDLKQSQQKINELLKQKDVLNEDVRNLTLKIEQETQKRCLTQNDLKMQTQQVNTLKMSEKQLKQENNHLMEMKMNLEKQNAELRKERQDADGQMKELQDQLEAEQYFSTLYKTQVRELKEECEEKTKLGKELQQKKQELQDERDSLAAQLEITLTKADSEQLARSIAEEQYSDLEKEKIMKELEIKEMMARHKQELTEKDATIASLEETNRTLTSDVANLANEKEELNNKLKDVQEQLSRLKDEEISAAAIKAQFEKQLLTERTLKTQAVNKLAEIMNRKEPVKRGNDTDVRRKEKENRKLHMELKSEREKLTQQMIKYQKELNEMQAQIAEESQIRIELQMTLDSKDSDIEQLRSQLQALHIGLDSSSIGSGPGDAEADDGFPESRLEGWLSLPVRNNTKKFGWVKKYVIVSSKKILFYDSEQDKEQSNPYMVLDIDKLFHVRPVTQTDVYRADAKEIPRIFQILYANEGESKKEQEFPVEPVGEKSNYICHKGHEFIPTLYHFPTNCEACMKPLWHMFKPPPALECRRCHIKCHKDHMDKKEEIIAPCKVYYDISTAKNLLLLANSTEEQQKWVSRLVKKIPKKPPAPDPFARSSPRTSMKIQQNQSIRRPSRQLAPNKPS

Row | SMILES | Ki (ROCK1 [1]) [nM] | Ki (ROCK2 [2]) [nM] | Ki (ROCK1 [3]) [nM] | Ki (ROCK2 [4]) [nM] | Ratio (PKA/ROCK2) (PKA)
1 | Cc1cnccc1-c1cnc(NCc2cccc(C(=O)Nc3nc4c(s3)CN(C)CC4)c2)c2c1OCC2 [Example 48, N-(5-methyl-4,5,6,7-tetrahydrothiazolo[5,4-c]pyridin-2-yl)-3-(((7-(3-methylpyridin-4-yl)-2,3-dihydrofuro[3,2-c]pyridin-4-yl)amino)methyl)benzamide] | ≤ 3 | ≤ 3 | – | – | –
2 | Cn1cnc(CNC(=O)c2cccc(CNc3ncc(-c4ccncc4)c4c3CCO4)c2)c1 [Example 3, N-((1-methyl-1H-imidazol-4-yl)methyl)-3-(((7-(pyridin-4-yl)-2,3-dihydrofuro[3,2-c]pyridin-4-yl)amino)methyl)benzamide] | – | – | 3 to 30 | ≤ 3 | *** (ratio≥10)
3 | O=C(Nc1ccncn1)c1cccc(CNc2ncc(-c3ccncc3)c3c2CCO3)c1 [Example 18, 3-(((7-(pyridin-4-yl)-2,3-dihydrofuro[3,2-c]pyridin-4-yl)amino)methyl)-N-(pyrimidin-4-yl)benzamide] | – | – | ≤ 3 | ≤ 3 | *** (ratio≥10)
4 | O=C(NC1CCOCC1)c1cccc(CNc2ncc(-c3ccncc3)c3c2CCO3)c1 [Example 7, 3-(((7-(pyridin-4-yl)-2,3-dihydrofuro[3,2-c]pyridin-4-yl)amino)methyl)-N-(tetrahydro-2H-pyran-4-yl)benzamide] | – | – | 3 to 30 | 3 to 30 | *** (ratio≥10)
5 | O=C(NCc1cncnc1)c1cccc(CNc2ncc(-c3ccncc3)c3c2CCO3)c1 [Example 5, 3-(((7-(pyridin-4-yl)-2,3-dihydrofuro[3,2-c]pyridin-4-yl)amino)methyl)-N-(pyrimidin-5-ylmethyl)benzamide] | – | – | 3 to 30 | 3 to 30 | *** (ratio≥10)
6 | O=C(NC1CC2CN(C3COC3)CC2C1)c1cccc(CNc2ncc(-c3ccncc3)c3c2CCO3)c1 (single isomer, unassigned) [Example 43a, N-(2-(oxetan-3-yl)octahydrocyclopenta[c]pyrrol-5-yl)-3-(((7-(pyridin-4-yl)-2,3-dihydrofuro[3,2-c]pyridin-4-yl)amino)methyl)benzamide] | – | – | ≤ 3 | ≤ 3 | *** (ratio≥10)
7 | CC(=O)N1CCC(CCNC(=O)c2cccc(CNc3ncc(-c4ccncc4)c4c3CCO4)c2)CC1 [Example 44, N-(2-(1-Acetylpiperidin-4-yl)ethyl)-3-(((7-(pyridin-4-yl)-2,3-dihydrofuro[3,2-c]pyridin-4-yl)amino)methyl)benzamide] | – | – | ≤ 3 | ≤ 3 | *** (ratio≥10)
8 | CNC(=O)c1cccc(CNc2ncc(-c3cc[nH]c(=O)c3)c3c2CCO3)c1 [Example B, N-methyl-3-(((7-(2-oxo-1,2-dihydropyridin-4-yl)-2,3-dihydrofuro[3,2-c]pyridin-4-yl)amino)methyl)benzamide, reference compound] | – | – | > 30 | > 30 | *** (ratio≥10)
9 | O=C(NC1CC2CN(C3COC3)CC2C1)c1cccc(CNc2ncc(-c3ccncc3)c3c2CCO3)c1 (single isomer, unassigned) [Example 43b, N-(2-(oxetan-3-yl)octahydrocyclopenta[c]pyrrol-5-yl)-3-(((7-(pyridin-4-yl)-2,3-dihydrofuro[3,2-c]pyridin-4-yl)amino)methyl)benzamide] | – | – | ≤ 3 | ≤ 3 | *** (ratio≥10)
10 | CNC(=O)c1cccc(CNc2ncc(-c3ccnc(N)c3F)c3c2CCO3)c1 [Example 46, 3-(((7-(2-Amino-3-fluoropyridin-4-yl)-2,3-dihydrofuro[3,2-c]pyridin-4-yl)amino)methyl)-N-methylbenzamide] | – | – | 3 to 30 | 3 to 30 | *** (ratio≥10)
11 | CN(C)CCn1cc(C(=O)Nc2cccc(CNc3ncc(-c4ccncc4)c4c3CCO4)c2)cn1 [Example 41, 1-(2-(Dimethylamino)ethyl)-N-(3-(((7-(pyridin-4-yl)-2,3-dihydrofuro[3,2-c]pyridin-4-yl)amino)methyl)phenyl)-1H-pyrazole-4-carboxamide] | – | – | 3 to 30 | ≤ 3 | *** (ratio≥10)
12 | CN1CCOC(CNC(=O)c2cccc(CNc3ncc(-c4ccncc4)c4c3CCO4)c2)C1 (centres unmarked) [Example 10, N-((4-methylmorpholin-2-yl)methyl)-3-(((7-(pyridin-4-yl)-2,3-dihydrofuro[3,2-c]pyridin-4-yl)amino)methyl)benzamide] | – | – | ≤ 3 | ≤ 3 | *** (ratio≥10)
13 | CC(C)(C)N1CC(CNC(=O)c2cccc(CNc3ncc(-c4ccncc4)c4c3CCO4)c2)CC1=O (centres unmarked) [Example 15, N-((1-(tert-butyl)-5-oxopyrrolidin-3-yl)methyl)-3-(((7-(pyridin-4-yl)-2,3-dihydrofuro[3,2-c]pyridin-4-yl)amino)methyl)benzamide] | – | – | ≤ 3 | ≤ 3 | *** (ratio≥10)
14 | CN(C)CCOc1ccc(NC(=O)c2cccc(CNc3ncc(-c4ccncc4)c4c3CCO4)c2)nc1 [Example 56, N-(5-(2-(dimethylamino)ethoxy)pyridin-2-yl)-3-(((7-(pyridin-4-yl)-2,3-dihydrofuro[3,2-c]pyridin-4-yl)amino)methyl)benzamide] | – | – | ≤ 3 | ≤ 3 | *** (ratio≥10)
15 | O=C(Nc1ccncc1)c1cccc(CNc2ncc(-c3ccncc3)c3c2CCO3)c1 [Example 11, N-(pyridin-4-yl)-3-(((7-(pyridin-4-yl)-2,3-dihydrofuro[3,2-c]pyridin-4-yl)amino)methyl)benzamide] | – | – | ≤ 3 | ≤ 3 | *** (ratio≥10)
16 | O=C(NCCC1CCN(C2COC2)CC1)c1cccc(CNc2ncc(-c3ccncc3)c3c2CCO3)c1 [Example 42, N-(2-(1-(Oxetan-3-yl)piperidin-4-yl)ethyl)-3-(((7-(pyridin-4-yl)-2,3-dihydrofuro[3,2-c]pyridin-4-yl)amino)methyl)benzamide] | – | – | ≤ 3 | ≤ 3 | *** (ratio≥10)
17 | O=C(NCc1ccon1)c1cccc(CNc2ncc(-c3ccncc3)c3c2CCO3)c1 [Example 6, N-(isoxazol-3-ylmethyl)-3-(((7-(pyridin-4-yl)-2,3-dihydrofuro[3,2-c]pyridin-4-yl)amino)methyl)benzamide] | – | – | 3 to 30 | ≤ 3 | *** (ratio≥10)
18 | O=C(NC1CC(CO)C1)c1cccc(CNc2ncc(-c3ccncc3)c3c2CCO3)c1 (centres unmarked) [Example 13, N-(3-(hydroxymethyl)cyclobutyl)-3-(((7-(pyridin-4-yl)-2,3-dihydrofuro[3,2-c]pyridin-4-yl)amino)methyl)benzamide] | – | – | 3 to 30 | ≤ 3 | *** (ratio≥10)
